In PubChem BioAssay AID1259407 (Chemical Carcinogenesis Research Information System (CCRIS), 2018) one finds mutagenic call data, which are given here for eight molecules.

The data set relates to CCRIS mutagenicity, Ames/micronucleus/aberration tests. In words: CCRIS mutagenicity studies.
Where [1] appears, read: Test System: AMES SALMONELLA TYPHIMURIUM, Strain/Indicator: TA98, Metabolic Activation: NONE, Method: STANDARD PLATE.
Where [2] appears, read: Test System: AMES SALMONELLA TYPHIMURIUM, Strain/Indicator: TA100, Metabolic Activation: NONE, Method: STANDARD PLATE.
The mark [3] stands for this setting: Test System: AMES SALMONELLA TYPHIMURIUM, Strain/Indicator: TA1535, Metabolic Activation: NONE, Method: STANDARD PLATE.
Setting [4] is: Test System: AMES SALMONELLA TYPHIMURIUM, Strain/Indicator: TA100, Metabolic Activation: NONE, Method: PREINCUBATION
[5] abbreviates: Test System: AMES SALMONELLA TYPHIMURIUM, Strain/Indicator: TA1535, Metabolic Activation: NONE, Method: PREINCUBATION
Setting [6] is: Test System: AMES SALMONELLA TYPHIMURIUM, Strain/Indicator: TA1535, Metabolic Activation: HAMSTER, LIVER, S-9, AROCLOR 1254, Method: PREINCUBATION
Where [7] appears, read: Test System: AMES SALMONELLA TYPHIMURIUM, Strain/Indicator: TA1535, Metabolic Activation: RAT, LIVER, S-9, AROCLOR 1254, Method: PREINCUBATION

The structures appear in SMILES notation. Activity calls are given as the source filed them. No rule for the calls is given here.

For `CC(C)CCC[C@@H](C)[C@H]1CC[C@H]2[C@@H]3C[C@@H]4O[C@@]45C[C@@H](O)CC[C@]5(C)[C@H]3CC[C@]12C`, the mutagenic call was “inactive; negative” (Test System: AMES SALMONELLA TYPHIMURIUM, Strain/Indicator: TA97, Metabolic Activation: NONE, Method: STANDARD PLATE); “inactive; negative” under setting [1]; “inactive; negative” under setting [2]; “inactive; negative” (Test System: AMES SALMONELLA TYPHIMURIUM, Strain/Indicator: TA102, Metabolic Activation: NONE, Method: STANDARD PLATE); “inactive; negative” under setting [3]; “active; positive” (Test System: AMES SALMONELLA TYPHIMURIUM, Strain/Indicator: TA1538, Metabolic Activation: RAT, LIVER, S-9, AROCLOR 1254 (10%), Method: STANDARD PLATE). Besides, the mutagenic call by setting is: (Test System: CHINESE HAMSTER V-79, Strain/Indicator: V-79/6-THIOGUANINE, Metabolic Activation: NONE) “active; positive”; (Test System: CHINESE HAMSTER V-79, Strain/Indicator: V-79/8-AZAGUANINE, Metabolic Activation: NONE) “active; positive”; (Test System: CHINESE HAMSTER V-79, Strain/Indicator: V-79/OUABAIN, Metabolic Activation: NONE) “inactive; negative”; (Test System: MOUSE LYMPHOMA, Strain/Indicator: L5178Y (TK+/TK-), Metabolic Activation: NONE, Method: SUSPENSION/PLATE) “active; positive. reevaluation of results: equivocal”; (Test System: Mouse lymphoma, Strain/Indicator: L5178Y (tk+/tk-), Metabolic Activation: Rat, Liver, S-9, Aroclor 1254, Method: Suspension/plate) “inactive; inconclusive (previous evaluation negative)”.

With `CC(=O)OCc1cc(C(C)=O)ccc1OC(C)=O`, the mutagenic call is, setting by setting: (Test System: AMES SALMONELLA TYPHIMURIUM, Strain/Indicator: TA100(PKM101), Metabolic Activation: NONE, Method: STANDARD PLATE) “active; positive”; under setting [2], “active; positive”; under setting [3], “inactive; negative”; (Test System: AMES SALMONELLA TYPHIMURIUM, Strain/Indicator: TA1538, Metabolic Activation: NONE, Method: STANDARD PLATE) “inactive; negative”; (Test System: E. COLI, Strain/Indicator: TK701(PKM101), Metabolic Activation: NONE, Method: STANDARD PLATE) “active; positive”; (Test System: E. COLI, Strain/Indicator: TK701, Metabolic Activation: NONE, Method: STANDARD PLATE) “active; positive”. The mutagenic call runs as follows: (Test System: E. COLI, Strain/Indicator: TK702(PKM101), Metabolic Activation: NONE, Method: STANDARD PLATE) “active; positive”; (Test System: E. COLI, Strain/Indicator: TK702, Metabolic Activation: NONE, Method: STANDARD PLATE) “inactive; negative”.

As to `Nc1ccccc1S(=O)(=O)O`, the mutagenic call (Test System: AMES SALMONELLA TYPHIMURIUM, Strain/Indicator: TA97, Metabolic Activation: HAMSTER, LIVER, S-9, AROCLOR 1254 (10 OR 30%), Method: PREINCUBATION) is “inactive; negative”; the mutagenic call (Test System: AMES SALMONELLA TYPHIMURIUM, Strain/Indicator: TA97, Metabolic Activation: NONE, Method: PREINCUBATION) was “inactive; negative”; the mutagenic call (Test System: AMES SALMONELLA TYPHIMURIUM, Strain/Indicator: TA97, Metabolic Activation: RAT, LIVER, S-9, AROCLOR 1254 (10%), Method: PREINCUBATION) is “inactive; negative”; the mutagenic call (Test System: AMES SALMONELLA TYPHIMURIUM, Strain/Indicator: TA97, Metabolic Activation: RAT, LIVER, S-9, AROCLOR 1254 (30%), Method: PREINCUBATION) was “inactive; negative”; the mutagenic call (Test System: AMES SALMONELLA TYPHIMURIUM, Strain/Indicator: TA98, Metabolic Activation: HAMSTER, LIVER, S-9, AROCLOR 1254 (10 OR 30%), Method: PREINCUBATION) is “inactive; negative”; the mutagenic call (Test System: AMES SALMONELLA TYPHIMURIUM, Strain/Indicator: TA98, Metabolic Activation: RAT, LIVER, S-9, AROCLOR 1254 (10 OR 30%), Method: PREINCUBATION) was “inactive; negative”. In addition, the mutagenic call runs as follows: (Test System: AMES SALMONELLA TYPHIMURIUM, Strain/Indicator: TA100, Metabolic Activation: HAMSTER, LIVER, S-9, AROCLOR 1254 (10 OR 30%), Method: PREINCUBATION) “inactive; negative”; under setting [4], “inactive; negative”; (Test System: AMES SALMONELLA TYPHIMURIUM, Strain/Indicator: TA100, Metabolic Activation: RAT, LIVER, S-9, AROCLOR 1254 (10 OR 30%), Method: PREINCUBATION) “inactive; negative”; (Test System: AMES SALMONELLA TYPHIMURIUM, Strain/Indicator: TA1535, Metabolic Activation: HAMSTER, LIVER, S-9, AROCLOR 1254 (10 OR 30%), Method: PREINCUBATION) “inactive; negative”; under setting [5], “inactive; negative”; (Test System: AMES SALMONELLA TYPHIMURIUM, Strain/Indicator: TA1535, Metabolic Activation: RAT, LIVER, S-9, AROCLOR 1254 (10 OR 30%), Method: PREINCUBATION) “inactive; negative”.

Take `NNCCO`: the mutagenic call is, setting by setting: (Test System: E. COLI, Strain/Indicator: WP2, Metabolic Activation: NONE, Method: STANDARD PLATE) “active; positive”; (Test System: E. COLI, Strain/Indicator: WP2, Metabolic Activation: RAT, LIVER, Method: STANDARD PLATE) “active; positive”; (Test System: E. COLI, Strain/Indicator: WP2HCR, Metabolic Activation: NONE, Method: STANDARD PLATE) “active; positive”; (Test System: E. COLI, Strain/Indicator: WP2HCR, Metabolic Activation: S-9 MIX, Method: STANDARD PLATE) “active; positive”; (Test System: E. COLI, Strain/Indicator: WP2 UVRA, Metabolic Activation: NONE, Method: STANDARD PLATE) “active; positive”.

Consider `Clc1cc(Cl)c(Cl)c(Cl)c1Cl`, for which the mutagenic call reads like this: (Test System: AMES SALMONELLA TYPHIMURIUM, Strain/Indicator: TA98, Metabolic Activation: HAMSTER, LIVER, S-9, AROCLOR 1254, Method: PREINCUBATION) “inactive; negative”; (Test System: AMES SALMONELLA TYPHIMURIUM, Strain/Indicator: TA98, Metabolic Activation: NONE, Method: PREINCUBATION) “inactive; negative”; (Test System: AMES SALMONELLA TYPHIMURIUM, Strain/Indicator: TA98, Metabolic Activation: RAT, LIVER, S-9, AROCLOR 1254, Method: PREINCUBATION) “inactive; negative”; (Test System: AMES SALMONELLA TYPHIMURIUM, Strain/Indicator: TA100, Metabolic Activation: HAMSTER, LIVER, S-9, AROCLOR 1254, Method: PREINCUBATION) “inactive; negative”; under setting [4], “inactive; negative”; (Test System: AMES SALMONELLA TYPHIMURIUM, Strain/Indicator: TA100, Metabolic Activation: RAT, LIVER, S-9, AROCLOR 1254, Method: PREINCUBATION) “inactive; negative”. Also, the mutagenic call runs as follows: under setting [6], “inactive; negative”; under setting [5], “inactive; negative”; under setting [7], “inactive; negative”; (Test System: AMES SALMONELLA TYPHIMURIUM, Strain/Indicator: TA1537, Metabolic Activation: HAMSTER, LIVER, S-9, AROCLOR 1254, Method: PREINCUBATION) “inactive; negative”; (Test System: AMES SALMONELLA TYPHIMURIUM, Strain/Indicator: TA1537, Metabolic Activation: NONE, Method: PREINCUBATION) “inactive; negative”; (Test System: AMES SALMONELLA TYPHIMURIUM, Strain/Indicator: TA1537, Metabolic Activation: RAT, LIVER, S-9, AROCLOR 1254, Method: PREINCUBATION) “inactive; negative”.

With `CCN=[N+]([O-])CC`, the mutagenic call was “inactive; negative” under setting [6], “inactive; negative” under setting [5] and “inactive; negative” under setting [7].

With `CCc1ccccc1NC(=O)c1csc([N+](=O)[O-])c1`, the mutagenic call is “active; positive” under setting [1] and “active; positive” under setting [2].

Consider `CC[N+]([O-])=NC`, for which the mutagenic call is, setting by setting: under setting [6], “inactive; negative”; under setting [5], “inactive; negative”; under setting [7], “inactive; negative”.
